{"source": "patent US20210153773A1", "about": "“DEVICE AND METHOD FOR DETECTION AND MONITORING OF COUGH” (priority 2019, published 2021)", "tested_on": "cough reflex", "test": "Citric acid spray tussive challenge (cough provocation)", "details": "50 mg/mL in distilled water, perfume sprayer held about 1 foot from the nose, ~0.07 to 0.10 mL per activation, every subject tested (n=10)", "experimental": "When held at about 1 foot in front of the nose and activated, a fine spray of ˜0.07 to 0.10 mL is released per activation.", "data": [{"compound": "O=C(O)CC(O)(CC(=O)O)C(=O)O", "note": "[citric acid]", "values": [{"measurement": "number of coughs provoked by inhaled spray", "result": "one to six"}]}]}
